# Reference: publication PMC7714403 (JCI Insight, 2020)
# Where “and” joins values, the source holds several entries; their conditions need not be identical. Identical values can stand only once.
# Tests used:
# TYK2 domain2 = target: T1, TYK2 domain2 (Homo sapiens, UniProt P29597); experiment: KiNativ, OCI cells live cell; type: cell-based
# T1 construct: TYK2 domain2
# p70S6K = p70S6K (Homo sapiens, UniProt P23443); experiment: KiNativ, OCI cells live cell; type: cell-based; settings: 2 h, labeling site Lys2, peptide […]
# MST1, MST2 [1] = experiment: KiNativ, OCI cells live cell; type: cell-based, human; settings: labeling site Lys2, peptide DIKAGNILLNTEGHAK
# [2] = Tolerability studies in tumor-bearing mice; type: in vivo; settings: once daily continuously or 5 consecutive days per week, up to 3–6 weeks
# Method: We performed tolerability studies in tumor-bearing 8- to 12-week-old female NOD-scid-γ (NSG) mice.
# days/week, along with vehicle, was administered in female NSG mice engrafted with MOLM13 -Luc+ and
# MOLM13-Res -Luc+ cells. Treatment started on day-7 and -13 post-tail vein injection (TVI) in MOLM13-Luc+
# and MOLM13-Res -Luc+, respectively. Change in their daily weights (%) were followed for tolerability.
# (1 picture or pasted object on this page, not shown here)
# MST1 = MST1 (Homo sapiens, UniProt Q13043); experiment: KiNativ, OCI cells live cell; type: cell-based; settings: labeling site Lys1, peptide ETGQIVAIKQVPVESDLQEIIK
# FLT3 D835V = target: T2, FLT3 D835V (Homo sapiens, UniProt P36888, D835V); experiment: KdELECT binding assay
# T2 construct: purchased Eurofins DiscoverX
# AMPKa1, AMPKa2 = experiment: KiNativ, OCI cells live cell; type: cell-based, human
# PYK2 = PYK2 (Homo sapiens, UniProt Q14289); experiment: KiNativ, OCI cells live cell; type: cell-based; settings: 2 h
# PIP5K3 = PIP5K3 (Homo sapiens, UniProt Q9Y2I7); experiment: KiNativ, OCI cells live cell; type: cell-based; settings: labeling site ATP, peptide GGKSGAAFYATEDDRFILK
# JAK3 = target: T3, JAK3 (Homo sapiens, UniProt P52333); experiment: KdELECT binding assay
# T3 construct: purchased Eurofins DiscoverX
# [3] = system: MSK1 domain1, MSK2 domain1; experiment: KiNativ, OCI cells live cell; type: cell-based, human; settings: labeling site ATP Loop, peptide VLGTGAYGKVFLVR
# MSK2 domain1 = target: T4, MSK2 domain1 (Homo sapiens, UniProt O75676); experiment: KiNativ, OCI cells live cell; type: cell-based; settings: 2 h
# T4 construct: MSK2 domain1
# ACK1 = ACK1 (Homo sapiens, UniProt Q07912); experiment: KdELECT binding assay; set-up: purchased Eurofins DiscoverX
# [4] = system: RSK1 domain1, RSK2 domain1, RSK3 domain1; experiment: KiNativ, MOLM13 live cells; type: cell-based, human; settings: 100 nM, 2 hours; Lys2
# Method: (§1) Samples were analyzed by KiNativ in situ kinase profiling by ActivX Biosciences.
# MST4, YSK1 = experiment: KiNativ, MOLM13 live cells; type: cell-based, human; settings: 100 nM, 2 hours; Lys2
# Method: as §1
# MST1, MST2 [5] = experiment: KiNativ, MOLM13 live cells; type: cell-based, human; settings: 100 nM, 2 hours; Lys2
# Method: as §1
# TAO1, TAO3 = experiment: KiNativ, MOLM13 live cells; type: cell-based, human; settings: 100 nM, 2 hours; Lys2
# Method: as §1
# [6] = system: MSK1 domain1, MSK2 domain1; experiment: KiNativ, MOLM13 live cells; type: cell-based, human; settings: 100 nM, 2 hours; ATP Loop
# Method: as §1
# Wnk1, Wnk2, Wnk3 = experiment: KiNativ, MOLM13 live cells; type: cell-based, human; settings: 100 nM, 2 hours; Lys2
# Method: as §1
# MAP3K2, MAP3K3 = experiment: KiNativ, MOLM13 live cells; type: cell-based, human; settings: 100 nM, 2 hours; Lys2
# Method: as §1
# AurA, AurB, AurC = experiment: KiNativ, MOLM13 live cells; type: cell-based, human; settings: 100 nM, 2 hours; ATP Loop
# Method: as §1
# SRPK1, SRPK2 = experiment: KiNativ, MOLM13 live cells; type: cell-based, human; settings: 100 nM, 2 hours; Lys1
# Method: as §1
# MAP3K15, MAP3K5, MAP3K6 = experiment: KiNativ, MOLM13 live cells; type: cell-based, human; settings: 100 nM, 2 hours; Lys1
# Method: as §1
# PCTAIRE1, PCTAIRE3 = experiment: KiNativ, MOLM13 live cells; type: cell-based, human; settings: 100 nM, 2 hours; Lys2
# Method: as §1
# NEK6, NEK7 = experiment: KiNativ, MOLM13 live cells; type: cell-based, human; settings: 100 nM, 2 hours; Lys2
# Method: as §1
# PI4KA, PI4KAP2 = experiment: KiNativ, MOLM13 live cells; type: cell-based, human; settings: 100 nM, 2 hours; ATP
# Method: as §1
# CK1g1, CK1g2, CK1g3 = experiment: KiNativ, MOLM13 live cells; type: cell-based, human; settings: 100 nM, 2 hours; ATP Loop
# Method: as §1
# MAP2K1, MAP2K2 [7] = experiment: KiNativ, MOLM13 live cells; type: cell-based, human; settings: 100 nM, 2 hours; Lys2
# Method: as §1
# KSR1, KSR2 = experiment: KiNativ, MOLM13 live cells; type: cell-based, human; settings: 100 nM, 2 hours; Activation Loop
# Method: as §1
# p38d, p38g = experiment: KiNativ, MOLM13 live cells; type: cell-based, human; settings: 100 nM, 2 hours; Lys2
# Method: as §1
# NDR1, NDR2 = experiment: KiNativ, MOLM13 live cells; type: cell-based, human; settings: 100 nM, 2 hours; Activation Loop
# Method: as §1
# MARK2, MARK3 = experiment: KiNativ, MOLM13 live cells; type: cell-based, human; settings: 100 nM, 2 hours; Lys2
# Method: as §1
# JNK1, JNK2, JNK3 = experiment: KiNativ, MOLM13 live cells; type: cell-based, human; settings: 100 nM, 2 hours; Lys2
# Method: as §1
# Wnk1, Wnk2, Wnk4 = experiment: KiNativ, MOLM13 live cells; type: cell-based, human; settings: 100 nM, 2 hours; Activation Loop
# Method: as §1
# MAPKAPK2, MAPKAPK3 = experiment: KiNativ, MOLM13 live cells; type: cell-based, human; settings: 100 nM, 2 hours; Lys2
# Method: as §1
# MAP2K1, MAP2K2 [8] = experiment: KiNativ, OCI cells live cell; type: cell-based, human; settings: labeling site Lys2, peptide DVKPSNILVNSR
# T1 sequence (P29597 whole entry, the tested form may be a part): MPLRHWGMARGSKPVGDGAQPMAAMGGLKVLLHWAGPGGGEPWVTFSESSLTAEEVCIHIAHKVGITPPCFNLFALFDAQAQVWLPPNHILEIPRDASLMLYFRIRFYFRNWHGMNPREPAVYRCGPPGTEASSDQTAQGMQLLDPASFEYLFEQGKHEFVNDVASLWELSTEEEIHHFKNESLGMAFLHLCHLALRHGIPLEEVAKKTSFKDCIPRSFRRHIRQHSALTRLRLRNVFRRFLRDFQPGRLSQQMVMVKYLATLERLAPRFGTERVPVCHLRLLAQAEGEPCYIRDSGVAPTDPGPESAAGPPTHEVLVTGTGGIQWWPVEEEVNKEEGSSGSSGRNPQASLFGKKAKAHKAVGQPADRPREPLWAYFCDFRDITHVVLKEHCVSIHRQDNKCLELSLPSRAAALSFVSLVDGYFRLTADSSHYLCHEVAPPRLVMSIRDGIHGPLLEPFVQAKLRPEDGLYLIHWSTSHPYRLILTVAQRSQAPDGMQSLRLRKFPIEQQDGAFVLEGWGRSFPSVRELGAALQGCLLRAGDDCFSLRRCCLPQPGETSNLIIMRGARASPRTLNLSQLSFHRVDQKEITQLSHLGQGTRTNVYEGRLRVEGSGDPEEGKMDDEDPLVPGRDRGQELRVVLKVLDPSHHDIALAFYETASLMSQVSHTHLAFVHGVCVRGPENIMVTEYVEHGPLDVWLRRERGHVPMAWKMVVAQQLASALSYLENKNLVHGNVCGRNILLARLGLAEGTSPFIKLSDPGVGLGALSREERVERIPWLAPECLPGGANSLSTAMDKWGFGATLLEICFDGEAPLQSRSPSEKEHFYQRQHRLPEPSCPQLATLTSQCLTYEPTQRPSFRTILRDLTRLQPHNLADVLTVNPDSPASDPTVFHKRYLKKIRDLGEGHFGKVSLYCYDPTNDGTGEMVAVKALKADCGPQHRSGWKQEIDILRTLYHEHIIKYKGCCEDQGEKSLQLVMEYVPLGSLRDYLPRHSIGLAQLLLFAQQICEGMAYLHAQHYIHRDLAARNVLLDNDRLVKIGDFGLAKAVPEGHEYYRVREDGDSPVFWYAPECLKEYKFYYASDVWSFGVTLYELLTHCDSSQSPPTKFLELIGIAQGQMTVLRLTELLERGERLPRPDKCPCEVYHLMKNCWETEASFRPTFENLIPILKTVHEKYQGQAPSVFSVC
# T4 sequence (O75676 whole entry, the tested form may be a part): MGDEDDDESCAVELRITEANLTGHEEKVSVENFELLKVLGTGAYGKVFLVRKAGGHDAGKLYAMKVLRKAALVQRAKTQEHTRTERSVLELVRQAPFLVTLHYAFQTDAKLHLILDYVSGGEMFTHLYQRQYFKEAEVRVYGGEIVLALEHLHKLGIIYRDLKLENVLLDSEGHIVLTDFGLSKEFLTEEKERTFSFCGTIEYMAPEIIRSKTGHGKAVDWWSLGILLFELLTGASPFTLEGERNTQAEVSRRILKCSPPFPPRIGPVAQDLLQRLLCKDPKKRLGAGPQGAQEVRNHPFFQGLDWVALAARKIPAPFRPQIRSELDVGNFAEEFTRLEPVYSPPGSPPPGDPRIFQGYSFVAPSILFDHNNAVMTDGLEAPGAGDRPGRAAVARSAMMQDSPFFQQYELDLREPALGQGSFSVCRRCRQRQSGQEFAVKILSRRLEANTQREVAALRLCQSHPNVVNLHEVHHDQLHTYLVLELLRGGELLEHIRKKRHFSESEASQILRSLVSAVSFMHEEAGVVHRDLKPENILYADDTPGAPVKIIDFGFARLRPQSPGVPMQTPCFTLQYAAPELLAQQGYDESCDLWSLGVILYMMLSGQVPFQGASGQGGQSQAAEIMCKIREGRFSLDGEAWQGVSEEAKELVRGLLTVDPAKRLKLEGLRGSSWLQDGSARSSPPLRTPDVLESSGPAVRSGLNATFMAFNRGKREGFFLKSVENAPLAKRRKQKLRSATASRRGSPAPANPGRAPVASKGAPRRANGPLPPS
# Sequence of PYK2 (Q14289 whole entry): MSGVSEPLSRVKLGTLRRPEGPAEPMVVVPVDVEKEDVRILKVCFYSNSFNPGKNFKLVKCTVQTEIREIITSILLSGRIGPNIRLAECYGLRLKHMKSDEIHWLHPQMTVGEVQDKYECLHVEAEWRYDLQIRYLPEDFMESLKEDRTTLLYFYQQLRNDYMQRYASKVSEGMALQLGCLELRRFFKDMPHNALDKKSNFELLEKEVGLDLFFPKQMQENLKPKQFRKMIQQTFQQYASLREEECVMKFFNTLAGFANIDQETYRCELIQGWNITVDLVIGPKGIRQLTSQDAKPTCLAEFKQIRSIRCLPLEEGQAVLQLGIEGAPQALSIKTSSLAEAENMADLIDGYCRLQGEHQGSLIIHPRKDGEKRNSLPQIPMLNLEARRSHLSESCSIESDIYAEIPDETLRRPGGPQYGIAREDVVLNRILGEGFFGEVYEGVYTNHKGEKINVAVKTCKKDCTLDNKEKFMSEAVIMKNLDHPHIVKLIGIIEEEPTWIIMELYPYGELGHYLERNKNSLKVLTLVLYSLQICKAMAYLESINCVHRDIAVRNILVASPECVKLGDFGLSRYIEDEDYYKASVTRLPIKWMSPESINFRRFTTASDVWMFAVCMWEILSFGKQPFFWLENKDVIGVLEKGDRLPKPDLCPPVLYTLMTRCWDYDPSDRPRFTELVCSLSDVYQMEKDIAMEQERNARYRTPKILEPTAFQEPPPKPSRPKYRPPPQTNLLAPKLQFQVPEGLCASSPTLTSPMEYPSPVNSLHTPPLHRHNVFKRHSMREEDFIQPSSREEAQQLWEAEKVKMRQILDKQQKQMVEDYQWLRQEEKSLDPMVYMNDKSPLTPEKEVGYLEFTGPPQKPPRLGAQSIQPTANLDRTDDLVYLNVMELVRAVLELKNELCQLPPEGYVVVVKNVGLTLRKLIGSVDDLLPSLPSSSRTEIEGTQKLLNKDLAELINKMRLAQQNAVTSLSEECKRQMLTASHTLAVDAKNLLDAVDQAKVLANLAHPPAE
# Sequence of ACK1 (Q07912 whole entry, the tested form may be a part): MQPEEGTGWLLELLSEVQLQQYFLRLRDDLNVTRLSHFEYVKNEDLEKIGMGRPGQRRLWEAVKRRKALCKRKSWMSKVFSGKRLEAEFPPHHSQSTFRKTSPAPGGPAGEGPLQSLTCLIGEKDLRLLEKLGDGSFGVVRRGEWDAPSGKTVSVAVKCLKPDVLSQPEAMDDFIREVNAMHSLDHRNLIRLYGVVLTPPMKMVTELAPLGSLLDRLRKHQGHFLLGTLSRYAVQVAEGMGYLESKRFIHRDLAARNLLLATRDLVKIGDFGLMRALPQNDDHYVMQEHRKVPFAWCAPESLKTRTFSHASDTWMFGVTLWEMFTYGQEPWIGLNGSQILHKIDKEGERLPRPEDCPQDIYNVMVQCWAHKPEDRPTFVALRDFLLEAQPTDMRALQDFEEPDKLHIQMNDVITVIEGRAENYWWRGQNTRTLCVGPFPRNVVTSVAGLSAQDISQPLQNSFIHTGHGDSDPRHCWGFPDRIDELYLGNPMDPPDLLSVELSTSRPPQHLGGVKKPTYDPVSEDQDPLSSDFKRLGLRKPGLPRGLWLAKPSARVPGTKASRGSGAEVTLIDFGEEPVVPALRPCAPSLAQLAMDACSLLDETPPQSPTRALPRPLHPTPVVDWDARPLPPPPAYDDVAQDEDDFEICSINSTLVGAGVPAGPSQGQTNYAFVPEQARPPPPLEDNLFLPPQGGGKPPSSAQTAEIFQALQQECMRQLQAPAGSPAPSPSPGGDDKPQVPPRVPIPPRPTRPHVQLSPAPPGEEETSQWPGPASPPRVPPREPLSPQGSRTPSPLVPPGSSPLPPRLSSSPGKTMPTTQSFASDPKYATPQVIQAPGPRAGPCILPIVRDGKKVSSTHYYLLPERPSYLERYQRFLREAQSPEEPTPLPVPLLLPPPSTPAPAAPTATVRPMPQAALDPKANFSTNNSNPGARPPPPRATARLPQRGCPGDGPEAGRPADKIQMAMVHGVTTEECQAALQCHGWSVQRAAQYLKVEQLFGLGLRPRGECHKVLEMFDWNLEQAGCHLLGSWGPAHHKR
# Sequence of MST1 (Q13043 whole entry): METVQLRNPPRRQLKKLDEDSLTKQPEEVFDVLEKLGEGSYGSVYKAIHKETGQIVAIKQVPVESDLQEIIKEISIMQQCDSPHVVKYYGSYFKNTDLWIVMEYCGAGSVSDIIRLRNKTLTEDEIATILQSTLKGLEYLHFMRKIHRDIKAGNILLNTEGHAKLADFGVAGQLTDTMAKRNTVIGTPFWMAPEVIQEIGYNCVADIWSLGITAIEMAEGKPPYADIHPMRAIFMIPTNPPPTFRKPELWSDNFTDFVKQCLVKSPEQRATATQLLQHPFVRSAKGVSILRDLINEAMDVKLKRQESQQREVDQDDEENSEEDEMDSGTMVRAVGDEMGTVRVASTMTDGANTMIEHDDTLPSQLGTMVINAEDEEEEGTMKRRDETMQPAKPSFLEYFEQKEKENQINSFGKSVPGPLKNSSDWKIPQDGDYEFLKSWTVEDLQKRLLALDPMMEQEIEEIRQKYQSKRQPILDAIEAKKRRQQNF
# Sequence of p70S6K (P23443 whole entry): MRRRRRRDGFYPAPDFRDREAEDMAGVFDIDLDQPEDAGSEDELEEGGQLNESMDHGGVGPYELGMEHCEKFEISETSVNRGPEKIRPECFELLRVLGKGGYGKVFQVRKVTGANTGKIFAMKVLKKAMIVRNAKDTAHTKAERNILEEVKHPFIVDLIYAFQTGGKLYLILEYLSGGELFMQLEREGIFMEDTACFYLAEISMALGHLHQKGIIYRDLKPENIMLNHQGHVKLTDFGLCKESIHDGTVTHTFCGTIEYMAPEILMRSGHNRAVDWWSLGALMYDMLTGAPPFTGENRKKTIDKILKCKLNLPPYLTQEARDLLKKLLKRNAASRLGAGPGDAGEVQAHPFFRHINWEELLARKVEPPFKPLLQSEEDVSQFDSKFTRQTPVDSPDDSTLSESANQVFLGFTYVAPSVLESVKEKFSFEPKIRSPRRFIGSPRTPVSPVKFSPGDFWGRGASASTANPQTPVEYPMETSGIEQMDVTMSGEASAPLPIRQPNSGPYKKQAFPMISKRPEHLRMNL
compound,measurement,setting,value
CN1CCN(Cc2ccc(Nc3ncc(Cl)c(Nc4ccccc4S(=O)(=O)N(C)C)n3)cc2)CC1 [TP-0903],Inhibition,"TYK2 domain2; labeling site Activation Loop, peptide IGDFGLAKAVPEGHEYYR",-38.7%
same,Inhibition,"TYK2 domain2; labeling site Lys1, peptide VSLYCYDPTNDGTGEMVAVKALK",21.1%
same,inhibition at 0.1 µM,p70S6K,6.3%
same,Inhibition,"MST1, MST2 [1]",35.6%
same,Highest tolerated doses,[2],40 mg/kg and 60 mg/kg
same,Inhibition,MST1,33.6%
same,Kd,FLT3 D835V,2.1 nM
same,Inhibition,"AMPKa1, AMPKa2; labeling site Lys1, peptide VAVKILNR",71.8%
same,Inhibition,"AMPKa1, AMPKa2; labeling site Lys2, peptide DLKPENVLLDAHMNAK",75.1%
same,inhibition at 0.1 µM,"PYK2; labeling site Activation Loop, peptide YIEDEDYYKASVTR",40.6%
same,inhibition at 0.1 µM,"PYK2; labeling site Lys1, peptide INVAVKTCK",80%
same,Inhibition,PIP5K3,18.4%
same,Kd,JAK3,< 5 nM
same,Inhibition,[3],11.0%
same,inhibition at 0.1 µM,"MSK2 domain1; labeling site Lys1, peptide LYAMKVLR",21.8%
same,inhibition at 0.1 µM,"MSK2 domain1; labeling site Lys2, peptide DLKLENVLLDSEGHIVLTDFGLSK",12.3%
same,Kd,ACK1,7.3 nM
same,Inhibition vs DMSO,[4],15.9%
same,Inhibition vs DMSO,"MST4, YSK1",39.6%
same,Inhibition vs DMSO,"MST1, MST2 [5]",41.2%
same,Inhibition vs DMSO,"TAO1, TAO3",9.9%
same,Inhibition vs DMSO,[6],-6.6%
same,Inhibition vs DMSO,"Wnk1, Wnk2, Wnk3",-31.8%
same,Inhibition vs DMSO,"MAP3K2, MAP3K3",-4.2%
same,Inhibition vs DMSO,"AurA, AurB, AurC",68.0%
same,Inhibition vs DMSO,"SRPK1, SRPK2",21.8%
same,Inhibition vs DMSO,"MAP3K15, MAP3K5, MAP3K6",-11.5%
same,Inhibition vs DMSO,"PCTAIRE1, PCTAIRE3",81.4%
same,Inhibition vs DMSO,"NEK6, NEK7",7.8%
same,Inhibition vs DMSO,"PI4KA, PI4KAP2",11.9%
same,Inhibition vs DMSO,"CK1g1, CK1g2, CK1g3",-28.7%
same,Inhibition vs DMSO,"MAP2K1, MAP2K2 [7]",-17.4%
same,Inhibition vs DMSO,"KSR1, KSR2",-11.7%
same,Inhibition vs DMSO,"p38d, p38g",-8.7%
same,Inhibition vs DMSO,"NDR1, NDR2",-0.8%
same,Inhibition vs DMSO,"MARK2, MARK3",37.1%
same,Inhibition vs DMSO,"JNK1, JNK2, JNK3",18.9%
same,Inhibition vs DMSO,"Wnk1, Wnk2, Wnk4",-35.0%
same,Inhibition vs DMSO,"MAPKAPK2, MAPKAPK3",-22.0%
same,Inhibition,"MAP2K1, MAP2K2 [8]",11.7%
